We go through 5 compounds from patent US20060182722A1, “Methods and materials for isolating isogenic islet cells” (priority 2005, published 2006).

Several values for one entry are separate records, joined by “and”; a condition that tells them apart may be missing. Equal entries are not always repeated.

Series [1] concerns type 1 diabetic recipients. Description: Example 3: safety assessments. Format: in vivo, human. To be noted: of 8 recipients; resolved or improved with dose reduction. On the procedure: Safety was assessed by monitoring the severity and duration of adverse events. Efficacy was assessed by studying the recipients' insulin requirements, C-peptide levels, oral and intravenous glucose tolerance results, intravenous arginine stimulation responses, and HbA1c levels. Safety Assessments. Recipients underwent clinical, laboratory, and diagnostic safety assessments daily during their transplant hospitalization and at each of their 19 posttransplant study visits. Portal pressure was monitored during the transplant procedure. On days +1 and +7, ultrasonographic examination was done of the right upper quadrant including Doppler examination of the portal venous system. The severity and duration of any adverse events were monitored and recorded. Laboratory tests assessed hematology, chemistry, liver transaminases, lipids, standard creatinine clearance, and urinary albumin excretion. Adverse events were graded per the National Cancer Institute's Common Toxicity Criteria, Version 2.0.

A short description of series [2]: Example 3: immunosuppressant whole blood trough levels. Format: in vivo, human. To be noted: for Drug Exposure: whole blood trough levels, individual recipients #1-#8. Here is the method:
Maintenance immunosuppression was initiated with sirolimus (0.2 mg/kg starting on day −2, followed by 0.1 mg/kg daily; target whole blood trough levels 5 to 15 ng/mL, as tolerated), and reduced-dose tacrolimus (0.015 mg/kg twice daily, starting on day +1; target whole blood trough levels 3 to 6 ng/mL). At 1 month posttransplant, tacrolimus was gradually replaced with mycophenolate mofetil (MMF; 750 to 1000 mg, twice daily); tacrolimus was either discontinued or dosed to a target trough level of <3 ng/mL. If target levels of sirolimus could not be achieved or maintained, however, tacrolimus (target level, 3 to 6 ng/mL) was continued.
The 5 recipients received daily MMF doses of 1.5 to 2.0 g. They either (a) achieved and maintained sirolimus trough levels >9 ng/mL, with tacrolimus trough levels of 0 to <3 ng/mL, or (b) in the absence of target sirolimus trough levels, tacrolimus trough levels of 3 to 6 ng/mL. The 3 recipients who resumed exogenous insulin therapy had received ≧1.5 g/day of MMF but had subtherapeutic sirolimus trough levels (<9 ng/mL) in the absence of measurable tacrolimus trough levels (<3 ng/mL). Please see Table 5 for immunosuppression.

A short description of series [3]: Example 4: sirolimus whole blood trough concentration. It is filed as in vivo, human. On the procedure: Immunosuppression. […] On days 0 through +9 posttransplant, they received a daily 4-mg dose. […] The doses were based on those previously used to treat kidney graft rejection (Woddle et al., Transplantation 1999; 68:608-616). Premedication was with acetaminophen, diphenhydramine, and pentoxifylline. Sirolimus (Rapamune, Wyeth-Ayerst) was initiated orally at a dose of 0.2 mg/kg on day −2, followed by 0.1 mg/kg daily; the dose then was titrated and adjusted to achieve a target whole blood trough level of 5 to 10 ng/mL. Mean trough concentration prior to transplant on day 0 was 6.1±1.7 ng/mL and on day +2 was 6.7±1.9 ng/mL. Reduced-dose tacrolimus (Prograf, Fujisawa) was administered orally to all islet recipients beginning on […] posttransplant at 0.015 mg/kg 2 times per day; the dose was then adjusted to achieve a target whole blood trough level of 3 to 6 ng/mL (Shapiro et al., New Engl. J. Med. 2000; 343:230-238).

The test system of another series is T1D patients. Description: Example 4: safety assessments. Further details: species or system human. To be noted: in vivo. From the text:
Safety assessments. Recipients underwent clinical, laboratory, and diagnostic safety assessments. Daily during their transplant hospitalization and at each of their 23 posttransplant study visits, the severity and duration of any adverse events were monitored and recorded. Laboratory tests included hematology, chemistry, liver transaminases, lipids, standard creatinine clearance, and urinary albumin excretion. Adverse events were graded based on the National Cancer Institute's Common Toxicity Criteria, Version 2.0.

A short description of series [4]: Monitoring hOKT3γ1 (Ala-Ala): serum levels. It is filed as in vivo, human. To be noted: table: individual subjects #1-#6, text: mean; for Peak hOKT3γ1 (Ala-Ala) level achieved: serum. The text has this:
(§1) Monitoring hOKT3γ1 (Ala-Ala). Flow cytometry was used to enumerate CD2^+, CD4^+, CD8^+, CD25^+, and CD69^+ T cells. […] Anti-idiotype antibodies were identified by ELISA, by the use of plate-bound OKT3, or by flow cytometry, in order to measure the blockade of binding of OKT3 fluorescein isothiocyanate to CD3 (Chatenoud, Transplant Proc. 1993; 25:68-73).

The target in the next series is T1, CD3 (Homo sapiens, UniProt P07766).
T1 construct: endogenous in cells; host or cells: peripheral blood lymphocytes (PBLs) of the treated patients
T1 sequence (P07766 23-207): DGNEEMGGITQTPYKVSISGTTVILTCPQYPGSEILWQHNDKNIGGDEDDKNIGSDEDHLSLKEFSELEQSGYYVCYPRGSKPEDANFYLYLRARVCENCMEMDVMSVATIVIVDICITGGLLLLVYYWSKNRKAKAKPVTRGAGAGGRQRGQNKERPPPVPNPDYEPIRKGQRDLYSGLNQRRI
T1 sequence (P09693 23-182 partner): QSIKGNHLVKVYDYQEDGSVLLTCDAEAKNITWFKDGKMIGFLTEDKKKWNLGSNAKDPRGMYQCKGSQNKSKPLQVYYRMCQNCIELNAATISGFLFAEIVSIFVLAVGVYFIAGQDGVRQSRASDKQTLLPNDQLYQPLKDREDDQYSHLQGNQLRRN
T1 sequence (P04234 22-171 partner): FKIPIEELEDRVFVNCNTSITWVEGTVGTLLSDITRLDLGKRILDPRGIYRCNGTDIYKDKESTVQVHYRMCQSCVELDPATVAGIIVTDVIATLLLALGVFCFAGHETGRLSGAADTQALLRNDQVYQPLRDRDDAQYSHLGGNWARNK
T1 sequence (P20963 22-164 partner): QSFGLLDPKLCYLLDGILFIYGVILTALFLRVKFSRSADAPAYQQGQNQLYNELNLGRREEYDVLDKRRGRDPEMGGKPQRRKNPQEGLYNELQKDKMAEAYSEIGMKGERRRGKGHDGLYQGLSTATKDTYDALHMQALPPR
The series can be described thus: Monitoring hOKT3γ1 (Ala-Ala): coating of the CD3 molecule on PBLs. Conditions: table: individual subjects #1-#6, text: mean. It is filed as in vivo.
Excerpt: as §1

The test system of series [5] is autoreactive and alloreactive T cell responses. Conditions: clinical; cited from earlier work.
Series [6] is described as follows: Anti-idiotype antibodies by ELISA. Format: in vivo, human. Conditions: all recipients treated.
Excerpt: as §1
(In general: ELISA stands for enzyme-linked immunosorbent assay.)

For series [7], the system named is serum cytokines (IL-10, TNF-α). Description: Serum cytokines before and after hOKT3γ1 (Ala-Ala). Format: in vivo, human.
Setting [8] is: the 3 recipients who resumed exogenous insulin therapy.

As to `COc1c(C)c2c(c(O)c1C/C=C(\C)CCC(=O)OCCN1CCOCC1)C(=O)OC2` [MMF, mycophenolate mofetil], the “Recipients with transient diarrhea after beginning MMF therapy” value in series [1] was determined as 6.
Consider `CO[C@H]1C[C@@H]2CC[C@@H](C)[C@@](O)(O2)C(=O)C(=O)N2CCCC[C@H]2C(=O)O[C@H]([C@H](C)C[C@@H]2CC[C@@H](O)[C@H](OC)C2)CC(=O)[C@H](C)/C=C(\C)[C@@H](O)[C@@H](OC)C(=O)[C@H](C)C[C@H](C)/C=C/C=C/C=C/1C` [Sirolimus, sirolimus], for which the Trough levels was greater than 9 ng/mL in series [2] (recipients with sustained insulin independence, case (a)) and less than 9 ng/mL in series [2] (setting [8]). In [2], the “Drug Exposure” value is 4-8 ng/ml and >9 ng/ml (3×) and 2-3 ng/ml and 7-9 ng/ml and 4-9 ng/ml and 6-8 ng/ml. In addition, the Mean trough concentration in series [3] (day +2) was 6.7 ± 1.9 ng/mL; in series [3] (prior to transplant on day 0), 6.1 ± 1.7 ng/mL.
In series [2] (setting [8]), `C=CC[C@@H]1/C=C(\C)C[C@H](C)C[C@H](OC)[C@H]2O[C@@](O)(C(=O)C(=O)N3CCCC[C@H]3C(=O)O[C@H](/C(C)=C/[C@@H]3CC[C@@H](O)[C@H](OC)C3)[C@H](C)[C@@H](O)CC1=O)[C@H](C)C[C@@H]2OC` [Tacrolimus, tacrolimus] gave a Trough levels of less than 3 ng/mL. Besides, in [2], the “Drug Exposure” value was 0 ng/ml (2×) and 4-5 ng/ml and 4-6 ng/ml and <3 ng/ml and 3 ng/ml.
With `C[C@@H]1[C@H](O)[C@@H](C)/C=C/C=C/CC/C=C/C=C/C=C/C=C/C(O[C@H]2O[C@H](C)[C@@H](O)[C@H](N)[C@@H]2O)CC2O[C@](O)(CC(O)C(O)CCC(O)CC(O)CC(O)CC(=O)O[C@H]1C)CC(O)C2C(=O)O` (stereo partly shown) [nystatin], the “Serious adverse event determined to be related to treatment” value in the series with T1D patients was “generalized rash”.
With “hOKT3γ1 (Ala-Ala): humanized anti-CD3 antibody retaining the binding region of OKT3; human IgG1 Fc mutated to prevent binding to the Fc receptor”, in series [4], the “Peak hOKT3γ1 (Ala-Ala) level achieved” value was found to be 1196 ± 821 ng/mL and the “Days to negative hOKT3γ1 (Ala-Ala) level after last dose” value stood at 61 ± 32 days. In series [4] (listed as hOKT3γ1 (Ala—Ala)), the “Peak hOKT3γ1 (Ala-Ala) level achieved” value is 872 ng/mL and 450 ng/mL and 1028 ng/mL and 736 ng/mL and 2761 ng/mL and 1330 ng/mL; the “Days to negative hOKT3γ1 (Ala-Ala) level after last dose” value is 91 days and 111 days and 47 days and 50 days and 33 days and 34 days. Besides, in the series with CD3, the “Duration >80% CD3 coating (Total # of days)” value turned out to be 4.8 ± 2.6 days and the “Time to 80% CD3 coating (# of days)” value was 7.3 ± 2.9 days. Also, in the series with CD3 (listed as hOKT3γ1 (Ala—Ala)), the “Duration >80% CD3 coating (Total # of days)” value was 4 days (2×) and 3 days and 2 days and 8 days (2×); the “Time to 80% CD3 coating (# of days)” value was 9.5 days and 8.5 days and 11.5 days and 4.5 days (2×) and 5.5 days. For the same compound, in series [5], the Kidney graft rejection result is given as “reversed kidney graft rejection” and the “Side effects compared with the parental OKT3 antibody” value is recorded as “markedly fewer side effects”. Further, the Anti-idiotype antibodies result in series [6] is “Absence of anti-idiotype antibodies”. Moreover, the “Mean peak serum TNF-α after administration” value in series [7] (29.9±31.7 pg/mL prior to administration) came out at 267.6 ± 120.3 pg/mL. Also, the “Serum IL-10 levels after administration compared with pre-dosing levels” value in [7] (all participants) is “increased in all participants”.
